The source of these data is patent US4335244A, “Monolactate salts of 4'-(9-acridinylamino)methanesulfon-m-anisidide” (Bristol-Myers Company, priority 1980, dated 1982).

One may read the solubility as how much of the substance goes into solution per volume. Lower therefore signals a poorly soluble substance.

Data set [1] can be described thus: Reconstitution with (sterile) water. It counts as physicochemical. The procedure:
The crystalline m-AMSA monolactate hemiacetonate (10 mg) prepared according to Example 1 was dissolved in 0.5 ml sterile water in an 8.2 ml flint vial. The vial was lyophilized on a laboratory lyophilizer for 16 hours. Sterile water (0.5 ml) was added to the vial. A solution was obtained after two minutes of shaking.
2. For reconstitution, add a sufficient amount of sterile water for
injection to give a 5 mg/ml mAMSA activity solution. The reconstituted

Data set [2] relates to animal tumor systems. The note with it: Cain, et al., Europ. J. Cancer 10:539-549 (1974); cited from earlier work.
The conditions of data set [3]: for Time for which reconstituted solution remained clear: room temperature; for Time for which dilute solution remains clear (in words): dilute solutions (e.g. 3-5 mg/ml) of m-AMSA, no precipitation of salt; for Stability (in words): solid form and/or upon reconstitution with water.
Description: (§1) (f) Stability: 15 mg salt was reconstituted with 10 ml sterile water.
For data set [4] the following is noted: cited from earlier work.
The nature of data set [5]: pH of aqueous solution before lyophilization. The note with it: 180 mg in 24 ml sterile water. Type of data set: physicochemical. Here is the method:
m-AMSA DL-lactate acetone solvate (180 mg; prepared in Example 6) was dissolved in 24 ml sterile water with stirring. The resulting clear (pH 4.2) solution was passed through a 1 inch 0.45 micron Millipore filter. Two ml of the filtrate was placed in an 8.2 cc flint vial and the solution was lyophilized for 24 hours.

Data set [6] in a line: physchem. The note with it: water.
Data set [7] is described as follows: physchem. The conditions noted are these: sterile water.
Description: as §1

SMILES strings stand for the structures. ≈ marks a conversion by molar mass, not a printed value. Where “and” joins values, the source holds several entries; their conditions need not be identical. Equal entries are not always repeated. Where two headings read alike, the source gives them in different places. Where only a bound is given, the exact number is not on record here.

Take `COc1cc(NS(C)(=O)=O)ccc1Nc1c2ccccc2nc2ccccc12` [Example 11]: the “Concentration of solution obtainable on reconstitution with water (m-AMSA activity)” value in data set [1] (lyophilized solid, at least 3-5 mg/ml m-AMSA activity, procedure of Example 7 'if repeated') lay within 3000 to 5000 µg/mL.
Take `COc1cc(NS(C)(=O)=O)ccc1Nc1c2ccccc2nc2ccccc12` [Example 2, Lyophilized L(+)-Monolactate Hemiacetonate of m-AMSA]: the “Shaking time to obtain a solution on reconstitution of lyophilized product” value in data set [1] (10 mg salt lyophilized, 0.5 ml sterile water) is “two”.
As to `COc1cc(NS(C)(=O)=O)ccc1Nc1c2ccccc2nc2ccccc12` [m-AMSA, 4'-(9-acridinylamino)methanesulfon-m-anisidide], the “Antitumor activity in animal tumor systems” value in data set [2] is “significant antitumor activity in animal tumor systems”. Further, the “Incompatibility of solutions with ions” value in data set [3] (chloride, sulfate and phosphate ions, insoluble salts form) is “incompatible with chloride, sulfate and phosphate”. Moreover, the Clinical evaluation result in data set [4] was “very promising initial results”.
On to `COc1cc(NS(C)(=O)=O)ccc1Nc1c2ccccc2nc2ccccc12` [Example 7], for which, in data set [1], the “Concentration of solution obtained on reconstitution with water” value is 7500 µg/mL. The “Time for which aqueous solution remained clear” value in data set [3] (7.5 mg/ml, 17° C.) is “at least 6 hours”. The “Time for which shaken solution was clear” value in data set [3] (7.5 mg/ml, low speed horizontal shaker) is given as “up to 5 hours”.
For the compound `COc1cc(NS(C)(=O)=O)ccc1Nc1c2ccccc2nc2ccccc12` [Example 4, m-AMSA Mono DL-Lactate Acetone Solvate], the pH of solution in data set [5] was 4.2. In data set [6] (room temperature), this compound showed a solubility of 25 mg/mL. The results for the “Concentration of solution obtained on reconstitution with water” value in data set [1] and in data set [1] (listed as Example 5) were 5000 to 7500 µg/mL and 7500 µg/mL, respectively. Besides, the “Concentration of reconstituted aqueous solution readily obtained” value in data set [1] (3 minutes shaking at 75° F.) was 5000 µg/mL and 7500 µg/mL and 10000 µg/mL. In addition, the “Time for which aqueous solution remained clear” value is given as “at least 16 hours” in data set [3] (5 mg/ml, room temperature (17° C.)) and “at least 16 hours” in data set [3] (7.5 mg/ml, 17° C., listed as Example 5). For the same compound, the figures for the “Time for which reconstituted solution remained clear” value in data set [3] (7.5 mg/ml), in data set [3] (10 mg/ml) and in data set [3] (15 mg/ml) were 24 h, 24 h and 6 h, respectively. Also, the “Time for which reconstituted solution remains clear” value in data set [3] (5-7.5 mg/ml, 17° C.) is reported as “at least 6 hours”. Besides, the “Time for which dilute solution remains clear (in words)” value in data set [3] is “at least several hours”. Also, in data set [3], the “Stability (in words)” value was “excellent stability both in solid form and upon reconstitution with water”.
For the compound `COc1cc(NS(C)(=O)=O)ccc1Nc1c2ccccc2nc2ccccc12` [Example 1, L(+)-Monolactate Hemiacetonate of m-AMSA], the degraded at 336 h in data set [7] was under 6%. For the same compound, the solubility in data set [6] was determined as 5 mg/mL (≈ 12.7 mM). The “Time for which reconstituted solution was stable” value in data set [3] (15 mg salt reconstituted with 10 ml sterile water) is recorded as “at least 24 hours”. Also, in data set [3], the “Time for which dilute solution remains clear (in words)” value is recorded as “at least several hours”; the “Stability (in words)” value was “excellent stability both in solid form and upon reconstitution with water”.
Regarding `COc1cc(NS(C)(=O)=O)ccc1Nc1c2ccccc2nc2ccccc12` [Example 10, m-AMSA D(-)-Monolactate Hemiacetonate], in data set [3], the “Time for which dilute solution remains clear (in words)” value is “at least several hours”; the “Stability (in words)” value was “excellent stability both in solid form and upon reconstitution with water”.
